Holding throughout (assay): DTP human tumour cell line panel, 48 h
In assay [1] the test system is A549 NSCLC.
Assay [2] deals with CCRF-CEM leukemia.
In assay [3] the test system is HCC-2998 colon.
The test system of assay [4] is LOX IMVI melanoma.
The subject of assay [5] is MCF7 breast.
Assay [6] has as its system MDA-MB-231 breast.
Assay [7] relates to NCI-H226 lung.
The subject of assay [8] is OVCAR-4 ovarian.
Assay [9] concerns RXF 393 renal.
For assay [10], the system named is TK-10 renal.

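Assay format: 96-well plates, 48-hour exposure. Definition used: TGI = concentration required for complete inhibition of growth.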

Consider `CC1(C)[C@@H]2C[C@H]1[C@@H](Cc1cccc(C[C@H]3c4cc(-c5ccccn5)ncc4[C@H]4C[C@@H]3C4(C)C)c1)c1cc(-c3ccccn3)ncc12`, for which the TGI in assay [1], in assay [2], in [3], in [4], in [5] and in [6] was > 100 µM each time. In addition, the TGI is > 91.2 µM in [7], > 100 µM in [8], > 100 µM in assay [9] and > 100 µM in assay [10].
Turning to `OC1c2ccccc2CCC1CN1CCN(CCOC(c2ccc(F)cc2)c2ccc(F)cc2)CC1` (stereo not given), the total growth inhibition concentration (TGI) in [1] is > 100 µM; in [2] it was 15.1 µM; in assay [3], 18.9 µM; in [4] it was 27.1 µM; in [5] it was 30.8 µM; in assay [6], 31.6 µM. The TGI in assay [7] is 28.3 µM; in assay [8], > 100 µM; in assay [9], 19.3 µM; in assay [10], 42.4 µM.
For the compound `COc1ccc([N+](=O)[O-])c2c(NCCCN(C)C)ccnc12`, the TGI was 23.8 µM in assay [1]; 61.9 µM in assay [2]; 6.95 µM in assay [3]; 31 µM in assay [4]; > 38.8 µM in [5]; > 73.8 µM in assay [6]. Also, the TGI in [7] came out at 30.2 µM; in [8], 3.69 µM; in assay [9], 8.32 µM; in assay [10], 70.5 µM.
Turning to `CC(=O)Nc1ccc2nc(-c3ccccn3)c(-c3ccccn3)nc2c1`, the TGI in [1], in assay [2], in assay [3], in assay [4], in assay [5] and in [6] was > 100 µM each time. The TGI in assay [7], in assay [8], in assay [9] and in [10] was > 100 µM throughout.
With `O=C(CN(C(=O)OC12CC3CC(CC(C3)C1)C2)C(=O)OC12CC3CC(CC(C3)C1)C2)Oc1ccc([N+](=O)[O-])cc1`, the total growth inhibition concentration (TGI) in [1], in [2], in assay [3], in assay [4], in assay [5] and in assay [6] was > 100 µM throughout. Further, the TGI in [7], in assay [8], in assay [9] and in assay [10] was > 100 µM throughout.
Turning to `CC1(C)[C@@H]2CC[C@]1(C)[C@H](OC(=O)/C=C/c1ccccc1)C2`, the TGI in assay [1] is > 100 µM; in assay [2], 41.6 µM; in [3], 30.7 µM; in assay [4], 37.1 µM; in assay [5], 30.8 µM; in assay [6] it was 35 µM. Besides, the TGI in [7] was 36.4 µM; in assay [8], 55.1 µM; in assay [9], 33.2 µM; in assay [10] it was > 100 µM.
Turning to `O=c1c2ccccc2[nH]n1Cc1ccccc1`, the TGI in assay [1], in assay [2], in assay [3], in [4], in assay [5] and in [6] was > 100 µM in each case. Also, the TGI in assay [7], in [8], in assay [9] and in assay [10] was > 100 µM each time.
As to `COC1CCON1C(=O)c1ccccc1` (stereo not given), the TGI in [1], in [2], in assay [3], in [4], in assay [5] and in assay [6] was > 10 µM each time. The TGI in assay [7], in [8], in [9] and in [10] was > 10 µM in each case.

As usually defined, the TGI is the concentration at which net growth stops. High values mean less potent growth arrest, low ones more potent growth arrest.

The record behind these values is PubChem BioAssay (NCI).
